Experimental data from PMC2759687 (Journal of medicinal chemistry, 2009).
Square brackets hold non-standard residues; d marks the D form. Peptide text beside a SMILES is read from it. Orn = NCCC[C@H](N)C(=O)O

What was measured:
Assay in all cases: Mean activity
Type in all cases: cell-based
fungi = details: geometric mean of MIC values (after 24 h) against 2 fungal strains
Gram-positive bacteria = details: geometric mean of MIC values (after 24 h) against 7 Gram-positive strains
Gram-negative bacteria = details: geometric mean of MIC values (after 24 h) against 7 Gram-negative strains

Q: CC(C)C[C@@H]1NC(=O)[C@H](CCCN)NC(=O)[C@H](C(C)C)NC(=O)[C@@H]2CCCN2C(=O)[C@@H](Cc2ccccc2)NC(=O)[C@H](CC(C)C)NC(=O)[C@H](CCCN)NC(=O)[C@H](C(C)C)NC(=O)[C@@H]2CCCN2C(=O)[C@@H](Cc2ccccc2)NC1=O [GS, gramicidin S] (cyclo(V[Orn]L[dF]PV[Orn]L[dF]P)) was tested. Which “Mean activity, fungi” value (fungi) did it give?
A: 2.8 µg/mL

Q: And the “Mean activity, Gram-positive bacteria” value (Gram-positive bacteria)?
A: 1.4 µg/mL

Q: And the “Mean Activity, Gram-negative bacteria” value (Gram-negative bacteria)?
A: 23.8 µg/mL
